pEC50: −log10 of the molar value.
These compounds were tested against T1, hFXR (Homo sapiens, UniProt Q96RI1) (assay: In Vitro FXR Assay (TK): hFXR/hRXR TK-ECRE-luc reporter in transfected CV-1 cells). Details: CV-1 cells transfected with hFXR, hRXR, 18 hrs incubation, luminescence, maximum efficacy <25% of Fexarmine control also classified as ‘+’.
T1 construct: expressed in transfected cells; host or cells: CV-1 cells
T1 sequence (Q96RI1 1-486): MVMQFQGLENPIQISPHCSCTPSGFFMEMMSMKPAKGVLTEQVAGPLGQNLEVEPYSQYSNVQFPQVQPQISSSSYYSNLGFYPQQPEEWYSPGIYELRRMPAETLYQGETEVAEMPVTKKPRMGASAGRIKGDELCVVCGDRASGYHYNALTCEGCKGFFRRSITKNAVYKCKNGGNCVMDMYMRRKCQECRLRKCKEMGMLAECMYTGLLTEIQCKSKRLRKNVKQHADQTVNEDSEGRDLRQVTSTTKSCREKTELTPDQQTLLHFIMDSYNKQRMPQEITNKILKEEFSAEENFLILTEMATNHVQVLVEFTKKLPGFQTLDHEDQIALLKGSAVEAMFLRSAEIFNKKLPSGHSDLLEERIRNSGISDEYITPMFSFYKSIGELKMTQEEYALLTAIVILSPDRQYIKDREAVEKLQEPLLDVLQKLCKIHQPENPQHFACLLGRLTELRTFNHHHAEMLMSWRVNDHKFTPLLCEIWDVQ
T1 sequence (P19793 1-462 partner): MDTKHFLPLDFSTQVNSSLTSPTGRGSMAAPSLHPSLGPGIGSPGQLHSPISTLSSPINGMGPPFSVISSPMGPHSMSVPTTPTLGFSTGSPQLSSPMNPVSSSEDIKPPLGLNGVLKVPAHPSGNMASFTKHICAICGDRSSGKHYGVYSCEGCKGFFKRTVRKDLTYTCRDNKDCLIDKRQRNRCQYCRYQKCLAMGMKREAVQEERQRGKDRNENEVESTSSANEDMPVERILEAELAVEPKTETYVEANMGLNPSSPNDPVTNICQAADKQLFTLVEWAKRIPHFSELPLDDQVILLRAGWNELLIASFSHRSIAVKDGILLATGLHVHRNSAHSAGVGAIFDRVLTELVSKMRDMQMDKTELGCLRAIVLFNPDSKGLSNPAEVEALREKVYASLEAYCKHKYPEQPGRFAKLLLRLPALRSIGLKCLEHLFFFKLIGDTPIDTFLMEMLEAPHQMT
Format: cell-based
Summary of the method: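 CV-1 cells in charcoal-stripped serum were transiently transfected with hFXR, hRXR, TK-ECRE-luc reporter and pCMX-YFP plasmids for 18 h at 37 °C. Serially diluted compounds were added for 18 h, then cells were lysed and luciferase luminescence read.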

SMILES	pEC50
COc1ccc([C@H]2CC[C@H](CN(c3cccc(-c4cc(C)ns4)c3)C(=O)[C@H]3CC[C@H](O)CC3)CC2)cc1C [Compound 2.06, trans-4-Hydroxy-N-((trans-4-(4-methoxy-3-methylphenyl)cyclohexyl)methyl)-N-(3-(3-methylisothiazol-5-yl)phenyl)cyclohexanecarboxamide]	≥ 6.30
COc1ccc([C@H]2CC[C@H](CN(c3cccc(-c4ccc(C(F)(F)F)nc4)c3)C(=O)[C@H]3CC[C@H](O)CC3)CC2)cc1C [Compound 1.04, trans-4-Hydroxy-N-((trans-4-(4-methoxy-3-methylphenyl)cyclohexyl)methyl)-N-(3-(6-(trifluoromethyl)pyridine-3-yl)phenyl)cyclohexanecarboxamide]	≥ 6.30
COc1ccc([C@H]2CC[C@H](CN(c3cccc(-c4cc(C5CC5)on4)c3)C(=O)[C@H]3CC[C@H](O)CC3)CC2)cc1C [Compound 9.14, trans-N-(3-(5-Cyclopropylisoxazol-3-yl)phenyl)-4-hydroxy-N-((trans-4-(4-methoxy-3-methylphenyl)cyclohexyl)methyl) cyclohexanecarboxamide]	≥ 6.30
COc1ccc([C@H]2CC[C@H](CN(c3cccc(-c4coc(C)n4)c3)C(=O)[C@H]3CC[C@H](O)CC3)CC2)cc1C [Compound 9.04, trans-4-Hydroxy-N-((trans-4-(4-methoxy-3-methylphenyl)cyclohexyl)methyl)-N-(3-(2-methyloxazol-4-yl)phenyl)cyclohexanecarboxamide]	≥ 6.30
CN(C)c1ccc([C@H]2CC[C@H](CN(c3cccc(-c4coc(C5CC5)n4)c3)C(=O)[C@H]3CC[C@H](O)CC3)CC2)cn1 [Compound 10.02, trans-N-(3-(2-Cyclopropyloxazol-4-yl)phenyl)-N-((trans-4-(6-(dimethylamino)pyridine-3-yl)cyclohexyl)methyl)-4-hydroxycyclohexanecarboxamide]	≥ 6.30
COc1ccc([C@H]2CC[C@H](CN(c3cccc(-n4cnc(C)c4)c3)C(=O)[C@H]3CC[C@H](O)CC3)CC2)cc1C [Compound 9.01, trans-4-Hydroxy-N-((trans-4-(4-methoxy-3-methylphenyl)cyclohexyl)methyl)-N-(3-(4-methyl-1H-imidazol-1-yl)phenyl)cyclohexanecarboxamide]	6.00 to 6.30
COc1ccc(-c2cccc(N(C[C@H]3CC[C@H](c4ccc(OC)c(C)c4)CC3)C(=O)[C@H]3CC[C@H](O)CC3)c2)cn1 [Compound 1.01, trans-4-Hydroxy-N-((trans-4-(4-methoxy-3-methylphenyl)cyclohexyl)methyl)-N-(3-(6-methoxypyridin-3-yl)phenyl)cyclohexanecarboxamide]	≥ 6.30
COc1ccc([C@H]2CC[C@H](CN(c3cccc(-c4coc(C(C)C)n4)c3)C(=O)[C@H]3CC[C@H](O)CC3)CC2)nc1C [Compound 10.05, trans-4-Hydroxy-N-(3-(2-isopropyloxazol-4-yl)phenyl)-N-((trans-4-(5-methoxy-6-methylpyridin-2-yl)cyclohexyl)methyl) cyclohexanecarboxamide]	≥ 6.30
COc1ncc([C@H]2CC[C@H](CN(c3cc(-c4coc(C5CC5)n4)ccn3)C(=O)[C@H]3CC[C@H](O)CC3)CC2)cc1Cl [Compound 10.24, trans-N-((trans-4-(5-Chloro-6-methoxypyridin-3-yl)cyclohexyl)methyl)-N-(4-(2-cyclopropyloxazol-4-yl)pyridin-2-yl)-4-hydroxycyclohexanecarboxamide]	≥ 6.30

Now from value to compound:

pEC50	SMILES
≥ 6.30	COc1cnc(-c2cccc(N(C[C@H]3CC[C@H](c4ccc(OC)c(C)c4)CC3)C(=O)[C@H]3CC[C@H](O)CC3)c2)cn1 [Compound 2.02, trans-4-Hydroxy-N-((trans-4-(4-methoxy-3-methylphenyl)cyclohexyl)methyl)-N-(3-(5-methoxypyrazin-2-yl)phenyl)cyclohexanecarboxamide]
≥ 6.30	COc1ccc([C@H]2CC[C@H](CN(c3cccc(-c4cc(C5CC5)ns4)c3)C(=O)[C@H]3CC[C@H](O)CC3)CC2)nc1C [Compound 10.08, trans-N-(3-(3-Cyclopropylisothiazol-5-yl)phenyl)-4-hydroxy-N-((trans-4-(5-methoxy-6-methylpyridin-2-yl)cyclohexyl)methyl) cyclohexanecarboxamide]
6.00 to 6.30	COc1ccc([C@H]2CC[C@H](CN(c3cccc(-n4cnc(C)n4)c3)C(=O)[C@H]3CC[C@H](O)CC3)CC2)cc1C [Compound 7, trans-4-Hydroxy-N-((trans-4-(4-methoxy-3-methylphenyl)cyclohexyl)methyl)-N-(3-(3-methyl-1-1,2,4-triazol-1-yl)phenyl)cyclohexanecarboxamide]
≥ 6.30	COc1ccc(C23CCC(CN(c4cccc(-c5coc(C6CC6)n5)c4)C(=O)[C@H]4CC[C@H](O)CC4)(CC2)CC3)cc1C [Compound 10]
≥ 6.30	COc1ccc([C@H]2CC[C@H](CN(c3cccc(-c4coc(C5CC5)n4)c3)C(=O)[C@H]3CC[C@H](O)CC3)CC2)nc1C [Compound 10.06, trans-N-(3-(2-Cyclopropyloxazol-4-yl)phenyl)-4-hydroxy-N-((trans-4-(5-methoxy-6-methylpyridin-2-yl)cyclohexyl)methyl) cyclohexanecarboxamide]
≥ 6.30	COc1ccc([C@H]2CC[C@H](CN(c3cccc(C#Cc4ccccn4)c3)C(=O)[C@H]3CC[C@H](O)CC3)CC2)cc1C [Compound 11.04, trans-4-Hydroxy-N-((trans-4-(4-methoxy-3-methylphenyl)cyclohexyl)methyl)-N-(3-(pyridine-2-ylethynyl)phenyl)cyclohexanecarboxamide]
≥ 6.30	COc1ccc([C@H]2CC[C@H](CN(c3cccc(-c4cc(C5CC5)no4)c3)C(=O)[C@H]3CC[C@H](O)CC3)CC2)cc1C [Compound 9.13, trans-N-(3-(3-cyclopropylisoxazol-5-yl)phenyl)-4-hydroxy-N-((trans-4-(4-methoxy-3-methylphenyl)cyclohexyl)methyl) cyclohexanecarboxamide]
6.00 to 6.30	COc1ccc([C@H]2CC[C@H](CN(c3cccc(-n4nnc(C)n4)c3)C(=O)[C@H]3CC[C@H](O)CC3)CC2)cc1C [Compound 9.05, trans-4-Hydroxy-N-((trans-4-(4-methoxy-3-methylphenyl)cyclohexyl)methyl)-N-(3-(5-methyl-2H-tetrazol-2-yl)phenyl)cyclohexanecarboxamide]
≥ 6.30	COc1ccc([C@H]2CC[C@H](CN(c3cccc(-c4ccc(N5CCCC5)nc4)c3)C(=O)[C@H]3CC[C@H](O)CC3)CC2)cc1C [Compound 1.10, trans-4-Hydroxy-N-((trans-4-(4-methoxy-3-methylphenyl)cyclohexyl)methyl)-N-(3-(6-(pyrrolidin-1-yl)pyridine-3-yl)phenyl)cyclohexanecarboxamide]
≥ 6.30	COc1ccc([C@H]2CC[C@H](CN(c3cc(-c4ccc(N(C)C)nc4)ccn3)C(=O)[C@H]3CC[C@H](O)CC3)CC2)cc1C [Compound 1.11, trans-N-(6-(Dimethylamino)-[3,4′-bipyridin]-2′-yl)-4-hydroxy-N-((trans-4-(4-methoxy-3-methylphenyl)cyclohexyl)methyl)cyclohexanecarboxamide]
≤ 6.00	COc1ccc([C@H]2CC[C@H](CN(c3cccc(-c4nnn(C)n4)c3)C(=O)[C@H]3CC[C@H](O)CC3)CC2)cc1C [Compound 5, trans-4-Hydroxy-N-((trans-4-(4-methoxy-3-methylphenyl)cyclohexyl)methyl)-N-(3-(2-methyl-2H-tetrazol-5-yl)phenyl)cyclohexanecarboxamide]
